The test system of data set [1] is HB3 strain of P. falciparum. The experiment in a line: 48-h [3H]-hypoxanthine incorporation antimalarial sensitivity assay, HB3 strain. Type of data set: cell-based. Conditions: HB3 strain (sensitive) of P. falciparum in vitro. The procedure:
(§1) The antimalarial activity of the new compounds was assessed using two strains of P. falciparum from Thailand: (a) the uncloned K1 strain which is known to be CQ resistant and (b) the HB3 strain which is sensitive to all antimalarials. Parasites were maintained in continuous culture using the method of Trager and Jenson (J. Parasitol., 1977, 63, 883-886). Cultures were grown in flasks containing human erythrocytes (2-5%) with parasitemia in the range of 1% to 10% suspended in RPMI 1640 medium supplemented with 25 mM HEPES and 32 mM NaHCO3, and 10% human serum (complete medium). Cultures were gassed with a mixture of 3% O2, 4% CO2 and 93% N2.
(§2) Antimalarial activity was assessed with an adaption of the 48-h sensitivity assay of Desjardins et al. (Antimicrob. Agents. Chemother., 1979, 16, 710-718) using [^3H]-hypoxanthine incorporation as an assessment of parasite growth. Stock drug solutions were prepared in 100% dimethylsulphoxide (DMSO) and diluted to the appropriate concentration using complete medium. Assays were performed in sterile 96-well microtitre plates, each plate containing 200 μl of parasite culture (2% parasitemia, 0.5% haematocrit) with or without 10 μl drug dilutions. Each drug was tested in triplicate and parasite growth was compared to control wells (which constituted 100% parasite growth). After 24-h incubation at 37° C., 0.5 μCi hypoxanthine was added to each well. Cultures were incubated for a further 24 h before they were harvested onto filter-mats, dried for 1 h at 55° C. and counted using a Wallac 1450 Microbeta Trilux Liquid scintillation and luminescence counter. IC50 values were calculated by interpolation of the probit transformation of the log dose—response curve.

In data set [2] the test system is K1 strain of P. falciparum. The experiment in a line: 48-h [3H]-hypoxanthine incorporation antimalarial sensitivity assay, K1 strain. Type of data set: cell-based. The procedure:
as §1, §2

In a further data set the test system is SF-268 (CNS). The experiment in a line: NCI 3-cell line anticancer assay, SF-268. Type of data set: cell-based. Conditions: 1.00E−04 Molar, 48 hours, sulforhodamine B. On the procedure: (§3) The anticancer activity of these compounds of the present invention was also assessed, by NCI 3-cell line anticancer assay. In this protocol, each cell line is inoculated and preincubated on a microtiter plate. Test agents are then added at a single concentration and the culture incubated for 48 hours. End-point determinations are made with sulforhodamine B, a protein-binding dye. Results for each test agent are reported as the percentage of growth of the treated cells when compared to the untreated control cells. Compounds which reduce the growth of any one of the cells lines to 32% or less (negative numbers indicate cell kill) are passed on for evaluation in the full panel of 60 cell lines over a 5-log dose range.

In the next data set the test system is NCI-H460 (Lung). Briefly: NCI 3-cell line anticancer assay, NCI-H460. Type of data set: cell-based. Conditions: 1.00E−04 Molar, 48 hours, sulforhodamine B. The procedure: as §3
Another data set deals with MCF7 (Breast). Briefly: NCI 3-cell line anticancer assay, MCF7. Conditions: 1.00E−04 Molar, 48 hours, sulforhodamine B. Type of data set: cell-based. On the procedure:
as §3

In the next data set the test system is L1210 cells. Conditions: cited from earlier work.
The mark [3] stands for this setting: Plasmodium falciparum, K1 strain (CQ resistant) of P. falciparum in vitro, read-out: IC50.
[4] abbreviates: K1 strain (CQ resistant) of P. falciparum in vitro, read-out: IC50.

Where two headings read alike, the source gives them in different places.

Turning to `C[C@@H]1CCC2[C@@H](C)[C@@H](OCc3ccc(CN4CCN(Cc5ccccc5)CC4)cc3)OC3O[C@@]4(C)CC[C@@H]1[C@]32OO4` (stereo partly drawn) [Compound 13e, 10β-[[4-[(Benzylpiperazyl)methyl]benzyl]oxy]dihydroartemisinin], the values for the IC50 in data set [1] (Plasmodium falciparum) and in data set [2] (setting [3]) were 1.8 nM and 3.8 nM, respectively.

For `CC1CCC2C(C)C(OCc3cccc(CN4CCN(c5cccc(C(F)(F)F)c5)CC4)c3)OC3OC4(C)CCC1C32OO4` (stereo not drawn) [Compound 13i, 10β-[[3-[(3-Trifluoromethylphenylpiperazyl)methyl]benzyl]oxy]dihydroartemisinin], the “percentage of growth of the treated cells compared to untreated control cells, SF-268 (CNS)” value (“percentage of growth … (CNS)” for short) in the data set with SF-268 (CNS) is on record as 29%. Further, the “percentage of growth of the treated cells compared to untreated control cells, NCI-H460 (Lung)” value (shortened to “percentage of growth … (Lung)”) with NCI-H460 (Lung) is reported as 15%. Further, the half-maximal inhibitory concentration (IC50) in data set [2] (setting [4]) was determined as 22.5 nM. Moreover, in the data set on MCF7 (Breast), the “percentage of growth of the treated cells compared to untreated control cells, MCF7 (Breast)” value (“percentage of growth … (Breast)” for short) worked out at 10%.

Consider `CCNCCCNCCCCNCCCNCC` [DESPM], for which the “cytotoxic effects in L1210 cells” value with L1210 cells is 0.2 µM.

With `CC1CCC2C(C)C(OCc3cccc(CN4CCN(c5ccc([N+](=O)[O-])cc5)CC4)c3)OC3OC4(C)CCC1C32OO4` (stereo not drawn) [Compound 13g, 10β-[[3-[(4-Nitrophenylpiperazyl)methyl]benzyl]oxy]dihydroartemisinin], the IC50 in data set [1] and in data set [2] (setting [4]) was 4.3 nM each time.

With `CC1CCC2C(C)C(OCc3ccc(CN4CCN(c5ccc([N+](=O)[O-])cc5)CC4)cc3)OC3OC4(C)CCC1C32OO4` (stereo not shown) [Compound 13b], in data set [2] (setting [4]), the IC50 was found to be 138 nM.

Turning to `CC1CCC2C(C)C(OCc3cccc(CN4CCN(c5ccccc5)CC4)c3)OC3OC4(C)CCC1C32OO4` (stereo not drawn) [Compound 13f, 10β-[[3-[(Phenylpiperazyl)methyl]benzyl]oxy]dihydroartemisinin], the 50% inhibitory concentration (IC50) was 3.4 nM in data set [1] and 6.6 nM in data set [2] (setting [4]).

Turning to `CC1CCC2C(C)C(OCc3ccc(CN4CCN(c5ccc(C(F)(F)F)cc5)CC4)cc3)OC3OC4(C)CCC1C32OO4` (stereo not drawn) [Compound 13d, 10β-[[4-[(4-Trifluoromethylphenylpiperazyl)methyl]benzyl]oxy]dihydroartemisinin], the results for the IC50 in data set [1] and in data set [2] (setting [4]) were 8.1 nM and 12.5 nM, respectively.

On to `CCNCCCCNCCCCNCCCCNCC` [DEHSPM], for which the “cytotoxic effects in L1210 cells” value with L1210 cells is 0.06 µM.

Turning to `CCN(CC)CCCC(C)Nc1ccnc2cc(Cl)ccc12` (stereo not shown) [Chloroquine, chloroquine, reference compound], in data set [2] (Plasmodium falciparum, K1), the IC50 stood at 255 nM.

Consider `CO[C@H]1O[C@@H]2O[C@@]3(C)CC[C@H]4[C@H](C)CC[C@@H]([C@H]1C)[C@@]24OO3` [Artemether, artemether, reference compound], for which the values for the IC50 in data set [1] (Plasmodium falciparum) and in data set [2] (setting [3]) were 9.2 nM and 6.5 nM, respectively.

`CC1CCC2C(C)C(OCc3ccc(CN4CCN(c5ccc(F)cc5)CC4)cc3)OC3OC4(C)CCC1C32OO4` (stereo not drawn) [Compound 13c, 10β-[[4-[(4-Fluorophenylpiperazyl)methyl]benzyl]oxy]dihydroartemisnin]: in the data set on SF-268 (CNS), the “percentage of growth … (CNS)” value came out at 27%. The IC50 was 2.3 nM in data set [1] and 6.3 nM in data set [2] (setting [4]). Moreover, the “percentage of growth … (Lung)” value in the data set with NCI-H460 (Lung) amounted to 12%. Besides, the “percentage of growth … (Breast)” value with MCF7 (Breast) turned out to be 13%.

For the compound `CCNCCCNCCCNCCCNCC` [DENSPM], the “cytotoxic effects in L1210 cells” value in the data set on L1210 cells is 1.3 µM.

As for `C[C@H]1[C@@H](OCc2cccc(CN3CCN(c4ccc(Cl)cc4)CC3)c2)O[C@@H]2O[C@@]3(C)CC[C@H]4[C@H](C)CC[C@@H]1[C@@]24OO3` [Compound 13h, 10β-[[3-[(4-Chlorophenylpiperazyl)methyl]benzyl]oxy]dihydroartemisinin], in the data set on SF-268 (CNS), the “percentage of growth … (CNS)” value turned out to be 31%. Further, the “percentage of growth … (Lung)” value in the data set on NCI-H460 (Lung) turned out to be 22%. Besides, in data set [2] (setting [4]), the IC50 stood at 13.3 nM. The “percentage of growth … (Breast)” value in the data set with MCF7 (Breast) worked out at 11%.

In the case of “10β-[[4-[Phenylpiperazyl)methyl]benzyl]dihydroartemisinin [Compound 13a]”, the IC50 in data set [2] (setting [4]) turned out to be 8.2 nM.

`CC1CCC2C(C)C(OCc3cccc(CN4CCN(c5ccc(F)cc5)CC4)c3)OC3OC4(C)CCC1C32OO4` (stereo not drawn) [Compound 13j, 10β-[[3-[(4-Fluorophenylpiperazyl)methyl]benzyl]oxy]dihydroartemisinin]: the IC50 in data set [1] and in data set [2] (setting [4]) was 12.6 nM throughout.

The values above are taken from US20050148598A1, “Trioxane derivatives” (priority 2001, published 2005).
